Test results published in patent US20040152641A1, “Use of polymethoxylated flavones for treating insulin resistance” (priority 2001, published 2004).
Converted amounts (≈) assume the structure as drawn.

Experiments:
[1] = target: alpha-glucosidase Type 1 from bakers yeast (Saccharomyces cerevisiae, UniProt P53341); experiment: In vitro inhibition of alpha-glucosidase; format: biochemical; details: 30 min, 37° C., p-nitrophenyl-alpha-D-glucopyranoside
Protocol: For the assay, alpha-glucosidase Type 1 from bakers yeast was incubated for 30 min, at 37° C., in the presence of substrate (p-nitrophenyl-alpha-D-glucopyranoside) and in the presence vs. absence of citrus flavonoids or coumarins at concentrations ranging from 3 to 200 μg/mL (0.01 to 1.8 mM). The reaction was stopped by addition of 0.2 M Na2CO3 and absorbance was measured at 405 nm. Background absorbance (without enzyme) was subtracted for every flavonoid or coumarins concentration used. The inhibitory activity was expressed as percent control and IC50 values (concentrations of compounds required to inhibit alpha-glucosidase by 50%) were calculated.

[2] = tested on: hamsters made insulin resistant by feeding 60% fructose diet; experiment: Hamsters made insulin resistant by 60% fructose diet, tangeretin supplementation, 2 weeks; details: for HDL cholesterol / Insulin / NEFA / NO2/NO3 / Triacylglycerols / VLDL + LDL cholesterol / Total cholesterol: serum, mean ± SD
Protocol: Diets were pair-fed to control for 2 weeks. After that time, fasting blood samples were collected by heart puncture for measurement of plasma lipids, glucose, NEFA, insulin and nitrites/nitrates (end products of nitric oxide metabolism). Total cholesterol in whole serum and in HDL fraction as well as total triglycerides and glucose were measured by enzymatic timed-endpoint methods, using the Beckman Coulter reagents and SYNCHRON™ LX System. VLDL+LDL cholesterol concentrations were calculated as a difference between total and HDL cholesterol. NEFA were determined enzymatically by NEFA C kit (Wako Chemicals USA Inc., Richmond, Va.). Serum insulin was measured using Rat Insulin RIA kit from Linco Research Inc. St. Charles, Mo. Serum nitrates/nitrites concentrations were determined using Nitrate/Nitrite Colorimetric Assay kit from Cayman Chemical Co., Ann Arbor, Mich.

HepG2 cells = experiment: Medium apo B in HepG2 cells made insulin-resistant by long-term insulin incubation; format: cell-based, human; details: insulin plus 25 μg/mL tangeretin, 5 days, Elisa
Protocol: In the cell culture study, 80-90% confluent HepG2 cells were incubated for 5 days with the following media:
1. Minimum essential medium containing 1% bovine serum albumin (MEM+BSA)
2. The same medium containing […] bovine insulin
All media were changed on day 3 to maintain high concentration of insulin (which undergoes partial degradation after long-term incubation). After 5 days, media and cells were collected. Medium concentrations of apo B were measured by Elisa and expressed as μg per mg cell protein as described previously^8.

[3] = tested on: human liver cell line HepG2; details: cited from earlier work
[4] = tested on: hamsters with casein-induced hypercholesterolemia; details: 0.13-1.0% supplementation; cited from earlier work
alpha-glucosidase = details: cited from earlier work

Sequence of alpha-glucosidase Type 1 from bakers yeast (P53341 whole entry): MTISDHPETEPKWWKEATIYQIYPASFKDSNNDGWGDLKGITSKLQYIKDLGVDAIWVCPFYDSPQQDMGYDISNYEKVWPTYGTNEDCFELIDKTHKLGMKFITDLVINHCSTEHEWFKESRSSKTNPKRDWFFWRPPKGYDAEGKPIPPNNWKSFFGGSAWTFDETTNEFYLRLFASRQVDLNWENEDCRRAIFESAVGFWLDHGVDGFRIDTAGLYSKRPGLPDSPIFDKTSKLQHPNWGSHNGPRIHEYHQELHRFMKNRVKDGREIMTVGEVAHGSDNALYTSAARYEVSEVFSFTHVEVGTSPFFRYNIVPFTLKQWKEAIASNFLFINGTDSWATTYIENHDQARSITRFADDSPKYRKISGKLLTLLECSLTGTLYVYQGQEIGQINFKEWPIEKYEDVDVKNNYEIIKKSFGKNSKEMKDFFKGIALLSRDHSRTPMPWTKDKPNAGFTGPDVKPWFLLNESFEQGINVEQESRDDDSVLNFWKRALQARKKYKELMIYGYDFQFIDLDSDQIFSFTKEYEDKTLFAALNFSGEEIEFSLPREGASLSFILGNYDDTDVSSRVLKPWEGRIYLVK

## COc1ccc(-c2oc3c(OC)c(OC)c(OC)c(OC)c3c(=O)c2OC)cc1OC [Heptamethoxyflavone]
[1]
  IC50: 500 µM
  IC50 alpha-glucosidase: 201.7 mg/L (≈ 466 µM)

## COc1ccc(-c2cc(=O)c3c(OC)c(OC)c(OC)c(OC)c3o2)cc1 [Tangeretin, 5,6,7,8,4′-pentamethoxyflavone]
[2]; 0.25-1.0% tangeretin, pair-fed, 2 weeks
  growth rate and food consumption between the groups: no significant difference
[2]; +0.25% Tan vs fructose group
  % change HDL cholesterol: 0%
  % change Insulin: −13%
  % change NEFA: −23%
  % change Total cholesterol: −5%
  % change Triacylglycerols: −24%
[2]; +0.5% Tan vs fructose group
  % change HDL cholesterol: −17%
  % change Insulin: −13%
  % change NEFA: −22%
  % change Total cholesterol: −22%
  % change Triacylglycerols: −27%
[2]; +1.0% Tan vs fructose group
  % change HDL cholesterol: −27%
  % change Insulin: −20%
  % change NEFA: −18%
  % change NO2/NO3: +99%
  % change Total cholesterol: −20%
  % change Triacylglycerols: −32%
[2]; fructose +0.25% Tan
  HDL cholesterol: 2.55 ± 0.72 mmol/L
  Insulin: 735 ± 315 pmol/L
  NEFA: 1.48 ± 0.36 mEq/L
  NO2/NO3: 55.2 ± 18.8 µmol/L
  Triacylglycerols: 1.51 ± 0.56 mmol/L
  VLDL + LDL cholesterol: 0.62 ± 0.3 mmol/L
[2]; fructose +0.5% Tan
  HDL cholesterol: 1.93 ± 0.48 mmol/L
  Insulin: 729 ± 239 pmol/L
  NEFA: 1.50 ± 0.33 mEq/L
  NO2/NO3: 52.0 ± 18.5 µmol/L
  Total cholesterol: 2.61 ± 0.43 mmol/L
  Triacylglycerols: 1.45 ± 0.52 mmol/L
  VLDL + LDL cholesterol: 0.68 ± 0.28 mmol/L
[2]; fructose +1.0% Tan
  HDL cholesterol: 1.88 ± 0.26 mmol/L
  Insulin: 675 ± 296 pmol/L
  NEFA: 1.58 ± 0.32 mEq/L
  NO2/NO3: 106.3 ± 27.9 µmol/L
  Total cholesterol: 2.69 ± 0.23 mmol/L
  Triacylglycerols: 1.35 ± 0.57 mmol/L
  VLDL + LDL cholesterol: 0.81 ± 0.22 mmol/L
[2]; fructose with 1% tangeretin
  Serum nitrate/nitrite concentration: doubled
[2]; supplementation with tangeretin, fructose diet
  Serum glucose: not altered
HepG2 cells
  medium apo B reduced, compared to insulin alone: 69%
[3]
  production of apolipoprotein B (apo B): substantially reduced
[4]
  serum content of triacylglycerols and cholesterol: significantly reduced

## O=c1cc(-c2ccc(O)cc2)oc2cc(O)cc(O)c12 [apigenin]
alpha-glucosidase
  inhibition of alpha-glucosidase, previous studies: inhibition

## COc1ccc([C@@H]2CC(=O)c3c(O)cc(O[C@@H]4O[C@H](CO[C@@H]5O[C@@H](C)[C@H](O)[C@@H](O)[C@H]5O)[C@@H](O)[C@H](O)[C@H]4O)cc3O2)cc1O [hesperidin]
alpha-glucosidase
  inhibition of alpha-glucosidase, previous studies: lack of alpha-glucosidase inhibition

## O=c1cc(-c2ccc(O)c(O)c2)oc2cc(O)cc(O)c12 [luteolin]
alpha-glucosidase
  inhibition of alpha-glucosidase, previous studies: inhibition
